Reference: patent US11963948B1, “2-(4-chlorophenyl)-4,5-bis(4-chlorophenyl)-1H-imidazole as an antimicrobial compound” (KING FAISAL UNIVERSITY, priority 2023, dated 2024)
Each block holds one molecule with its values, some of them ahead of it.

What was measured:
[1] = test system: Chrysosporium keratinophilum; assay: Agar plate disc-diffusion, antifungal activity, Chrysosporium keratinophilum; assay type: cell-based; conditions: Sabouraud's dextrose agar, 37° C., 72 h
Experimental: (§1) The agar plate disc-diffusion method was applied. […] The discs were then placed onto the surface of agar plates (nutrient agar for bacteria and Sabouraud's dextrose agar for fungi) seeded with the test organism. Each plate contained 15 mL of the agar medium, previously seeded with 0.2 mL of the broth culture of each organism pregrown for 18 hours. The plates were incubated at 37° C. for 48 h, and 72 h for fungi. The inhibition zones were measured in mm. Discs impregnated with DMSO were used as a control, and its inhibition zone was subtracted from the tested compound actual inhibition zone.

Aspergillus flavus = assay: Agar plate disc-diffusion, antifungal activity, Aspergillus flavus; assay type: cell-based; conditions: Sabouraud's dextrose agar, 37° C., 72 h
Experimental: The agar plate disc-diffusion method was applied. Sterilized filter papers (6 mm in diameter) were wetted with 10 μL of a solution of 2-(4-chlorophenyl)-4,5-bis(4-chlorophenyl)-1H-imidazole (IV) to be tested, containing 10 mg/mL in DMSO, and the discs were allowed to air dry. The discs were then placed onto the surface of agar plates (nutrient agar for bacteria and Sabouraud's dextrose agar for fungi) seeded with the test organism. Each plate contained 15 mL of the agar medium, previously seeded with 0.2 mL of the broth culture of each organism pregrown for 18 hours. The plates were incubated at 37° C. for 48 h, and 72 h for fungi. The inhibition zones were measured in mm. Discs impregnated with DMSO were used as a control, and its inhibition zone was subtracted from the tested compound actual inhibition zone.

Staphylococcus aureus = assay: Agar plate disc-diffusion, antibacterial activity, Staphylococcus aureus; assay type: cell-based; conditions: Staphylococcus aureus (Gram positive), nutrient agar, 37° C., 48 h
Experimental: as §1

Pseudomonas aeruginosa = assay: Agar plate disc-diffusion, antibacterial activity, Pseudomonas aeruginosa; assay type: cell-based; conditions: Pseudomonas aeruginosa (Gram negative), nutrient agar, 37° C., 48 h
Experimental: as §1

Escherichia coli = assay: Agar plate disc-diffusion, antibacterial activity, Escherichia coli; assay type: cell-based; conditions: Escherichia coli (Gram negative), nutrient agar, 37° C., 48 h
Experimental: as §1

Bacillus cereus = assay: Agar plate disc-diffusion, antibacterial activity, Bacillus cereus; assay type: cell-based; conditions: Bacillus cereus (Gram positive), nutrient agar, 37° C., 48 h
Experimental: as §1

[2] = A = concentration of comp. = 10,000 μL
[3] = B = concentration of comp. = 30,000 μL
[4] = C = concentration of comp. = 50,000 μL
[5] = A = concentration of comp. = 10,000 µg/mL

SMILES: O=C(O)c1cn(C2CC2)c2cc(N3CCNCC3)c(F)cc2c1=O [Cip., ciprofloxacin, reference compound]
inhibition zone [1, 2]: 29 mm
inhibition zone [1, 3]: 30 mm
inhibition zone [1, 4]: 53 mm
inhibition zone (Aspergillus flavus; [2]): 29 mm
inhibition zone (Aspergillus flavus; [3]): 30 mm
inhibition zone (Aspergillus flavus; [4]): 42 mm
inhibition zone (Staphylococcus aureus; [2]): 43 mm
inhibition zone (Staphylococcus aureus; [3]): 44 mm
inhibition zone (Staphylococcus aureus; [4]): 53 mm
inhibition zone (Pseudomonas aeruginosa; [5]): 29 mm
inhibition zone (Pseudomonas aeruginosa; [3]): 30 mm
inhibition zone (Pseudomonas aeruginosa; [4]): 53 mm
inhibition zone (Escherichia coli; [2]): 30 mm
inhibition zone (Escherichia coli; [3]): 39 mm
inhibition zone (Escherichia coli; [4]): 60 mm
inhibition zone (Bacillus cereus; [2]): 29 mm
inhibition zone (Bacillus cereus; [3]): 30 mm
inhibition zone (Bacillus cereus; [4]): 42 mm

melting point: 211 to 212 °C
SMILES: Clc1ccc(-c2nc(-c3ccc(Cl)cc3)c(-c3ccc(Cl)cc3)[nH]2)cc1 [IV, 2-(4-chlorophenyl)-4,5-bis(4-chlorophenyl)-1H-imidazole]
inhibition zone [1, 2]: 22 mm
inhibition zone [1, 3]: 27 mm
inhibition zone [1, 4]: 40 mm
inhibition zone (Aspergillus flavus; [2]): 23 mm
inhibition zone (Aspergillus flavus; [3]): 25 mm
inhibition zone (Aspergillus flavus; [4]): 33 mm
inhibition zone (Staphylococcus aureus; [2]): 17 mm
inhibition zone (Staphylococcus aureus; [3]): 23 mm
inhibition zone (Staphylococcus aureus; [4]): 34 mm
inhibition zone (Pseudomonas aeruginosa; [5]): 24 mm
inhibition zone (Pseudomonas aeruginosa; [3]): 26 mm
inhibition zone (Pseudomonas aeruginosa; [4]): 43 mm
inhibition zone (Escherichia coli; [2]): 25 mm
inhibition zone (Escherichia coli; [3]): 30 mm
inhibition zone (Escherichia coli; [4]): 48 mm
inhibition zone (Bacillus cereus; [2]): 25 mm
inhibition zone (Bacillus cereus; [3]): 27 mm
inhibition zone (Bacillus cereus; [4]): 40 mm
